These compounds were tested against T1, Recombinant human TPH1 (MBP tagged) (Homo sapiens, UniProt P17752) (assay: TPH1 in vitro inhibition assay (kinetic fluorescence)). Conditions: read-out: TPH1 Range (TPH1 inhibition IC50).
T1 construct: cloning full length human TPH1 cDNA in to a bacterial pMAL-c5E expression vector; made in house; host or cells: E. coli BL21 (DE3)
T1 sequence (P17752 1-444): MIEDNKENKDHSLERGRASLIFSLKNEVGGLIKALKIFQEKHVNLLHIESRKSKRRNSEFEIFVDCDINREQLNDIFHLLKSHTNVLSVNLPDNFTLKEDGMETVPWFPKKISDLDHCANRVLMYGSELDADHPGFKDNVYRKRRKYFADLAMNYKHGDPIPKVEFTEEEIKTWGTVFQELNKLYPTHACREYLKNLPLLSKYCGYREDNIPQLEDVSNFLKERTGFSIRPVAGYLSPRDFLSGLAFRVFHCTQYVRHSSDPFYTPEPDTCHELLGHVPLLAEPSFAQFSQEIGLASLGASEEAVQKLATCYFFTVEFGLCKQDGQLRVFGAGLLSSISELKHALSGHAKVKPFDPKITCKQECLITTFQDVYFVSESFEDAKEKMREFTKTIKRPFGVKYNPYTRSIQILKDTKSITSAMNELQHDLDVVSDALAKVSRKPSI
Type: biochemical
Procedure, shortened: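 Final mix: 15 nM MBP-TPH1, 30 μM Trp, 36 μM 6-methyltetrahydropterin, 25 μM ferrous ammonium sulfate, 50 mM MES pH 7.1, 1% DMSO, room temperature.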

Row | Structure (SMILES) | IC50 [µM]
1 | CC(Oc1cc(N2CCC3(CC2)CN[C@H](C(=O)O)C3)nc(N)n1)C1C2CC3CC(C2)CC1C3 (stereo partly drawn) [Example 37, (3S)-8-(6-(1-((1r,3r,5S,7S)-adamantan-2-yl)ethoxy)-2-aminopyrimidin-4-yl)-2,8-diazaspiro[4.5]decane-3-carboxylic acid] | 3 to 10
2 | Nc1nc(OCC2C3CC4CC(C3)CC2C4)cc(N2CCC3(CC2)CN[C@H](C(=O)O)C3)n1 (stereo partly drawn) [Example 38, (S)-8-(6-((1r,3r,5S,7S)-adamantan-2-ylmethoxy)-2-aminopyrimidin-4-yl)-2,8-diazaspiro[4.5]decane-3-carboxylic acid] | 0.3 to 3
3 | Nc1nc(NCc2ccc3ccccc3c2)nc(N2CCC3(CC2)CNC(C(=O)O)C3)n1 (stereo not shown) [Example 39a, 8-(4-Amino-6-((naphthalen-2-ylmethyl)amino)-1,3,5-triazin-2-yl)-2,8-diazaspiro[4.5]decane-3-carboxylic acid] | 0.3 to 3
4 | Nc1nc(NCc2ccc(-c3ccccc3)cc2)nc(N2CCC3(CC2)CNC(C(=O)O)C3)n1 (stereo not shown) [Example 39b, 8-(4-(([1,1′-biphenyl]-4-ylmethyl)amino)-6-amino-1,3,5-triazin-2-yl)-2,8-diazaspiro[4.5]decane-3-carboxylic acid] | 3 to 10
5 | Nc1nc(NCc2ccccc2N2CCCCC2)nc(N2CCC3(CC2)CNC(C(=O)O)C3)n1 (stereo not shown) [Example 39c, 8-(4-amino-6-((2-(piperidin-1-yl)benzyl)amino)-1,3,5-triazin-2-yl)-2,8-diazaspiro[4.5]decane-3-carboxylic acid] | 3 to 10
6 | Nc1nc(NCc2cccc(-c3ccccc3)c2)nc(N2CCC3(CC2)CNC(C(=O)O)C3)n1 (stereo not shown) [Example 39d, 8-(4-(([1,1′-biphenyl]-3-ylmethyl)amino)-6-amino-1,3,5-triazin-2-yl)-2,8-diazaspiro[4.5]decane-3-carboxylic acid] | 3 to 10
7 | C[C@@H](Nc1nc(N)nc(N2CCC3(CC2)CNC(C(=O)O)C3)n1)c1ccc2ccccc2c1 (stereo partly drawn) [Example 39e, 8-(4-amino-6-(((R)-1-(naphthalen-2-yl)ethyl)amino)-1,3,5-triazin-2-yl)-2,8-diazaspiro[4.5]decane-3-carboxylic acid] | 0.3 to 3
8 | Cc1ccn(-c2cc(Cl)ccc2[C@@H](Oc2nc(N)nc(N3CCC4(CC3)CNC(C(=O)O)C4)n2)C(F)(F)F)n1 (stereo partly drawn) [Example 40, 8-(4-amino-6-((R)-1-(4-chloro-2-(3-methyl-H-pyrazol-1-yl)phenyl)-2,2,2-trifluoroethoxy)-1,3,5-triazin-2-yl)-2,8-diazaspiro[4.5]decane-3-carboxylic acid] | 0.3 to 3
9 | Cc1ccn(-c2cc(Cl)ccc2[C@@H](Oc2cnnc(N3CCC4(CC3)CN[C@H](C(=O)O)C4)c2)C(F)(F)F)n1 [Example 43, (S)-8-(5-((R)-1-(4-chloro-2-(3-methyl-H-pyrazol-1-yl)phenyl)-2,2,2-trifluoroethoxy)pyridazin-3-yl)-2,8-diazaspiro[4.5]decane-3-carboxylic acid] | 3 to 10
10 | Cc1ccn(-c2ccccc2[C@@H](Oc2ccnc(N3CCC4(CC3)CN[C@H](C(=O)O)C4)c2)C(F)(F)F)n1 [Example 44, (S)-8-(4-((R)-2,2,2-trifluoro-1-(2-(3-methyl-1H-pyrazol-1-yl)phenyl)ethoxy)pyridin-2-yl)-2,8-diazaspiro[4.5]decane-3-carboxylic acid] | 0.3 to 3
11 | Cc1ccn(-c2cc(Cl)ccc2[C@@H](Oc2ccnc(N3CCC4(CC3)CN[C@H](C(=O)O)C4)c2)C(F)(F)F)n1 [Example 45, (S)-8-(4-((R)-1-(4-chloro-2-(3-methyl-H-pyrazol-1-yl)phenyl)-2,2,2-trifluoroethoxy)pyridin-2-yl)-2,8-diazaspiro[4.5]decane-3-carboxylic acid] | 0.05 to 0.3
12 | Cc1ccn(-c2cc(Cl)ccc2[C@@H](Oc2cc(Oc3ccccc3)nc(N3CCC4(CC3)CNC(C(=O)O)C4)n2)C(F)(F)F)n1 (stereo partly drawn) [Example 46, 8-(4-((R)-1-(4-chloro-2-(3-methyl-H-pyrazol-1-yl)phenyl)-2,2,2-trifluoroethoxy)-6-phenoxypyrimidin-2-yl)-2,8-diazaspiro[4.5]decane-3-carboxylic acid] | 3 to 10
13 | Nc1nc(OC(c2c(Br)cccc2Br)C(F)(F)F)cc(N2CCC3(CC2)CN[C@H](C(=O)O)C3)n1 (stereo partly drawn) [Example 47, (3S)-8-(2-Amino-6-(1-(2,6-dibromophenyl)-2,2,2-trifluoroethoxy)pyrimidin-4-yl)-2,8-diazaspiro[4.5]decane-3-carboxylic acid] | 0.3 to 3
14 | Nc1nc(O[C@H](c2cc(Br)ccc2Br)C(F)(F)F)cc(N2CCC3(CC2)CN[C@H](C(=O)O)C3)n1 [Example 48, (S)-8-(2-Amino-6-((R)-1-(2,5-dibromophenyl)-2,2,2-trifluoroethoxy)pyrimidin-4-yl)-2,8-diazaspiro[4.5]decane-3-carboxylic acid] | 0.3 to 3
15 | CCCc1ccc(-c2cccc(S(C)(=O)=O)c2)c([C@@H](Oc2cc(N3CCC4(CC3)CN[C@H](C(=O)O)C4)nc(N)n2)C(F)(F)F)c1 [Example 49, (S)-8-(2-Amino-6-((R)-2,2,2-trifluoro-1-(3′-(methylsulfonyl)-4-propyl-[1,1′-biphenyl]-2-yl)ethoxy)pyrimidin-4-yl)-2,8-diazaspiro[4.5]decane-3-carboxylic acid] | < 0.05
16 | C/C=C/c1ccc(-c2cccc(S(C)(=O)=O)c2)c([C@@H](Oc2cc(N3CCC4(CC3)CN[C@H](C(=O)O)C4)nc(N)n2)C(F)(F)F)c1 [Example 50, (S)-8-(2-Amino-6-((R)-2,2,2-trifluoro-1-(3′-(methylsulfonyl)-4-((E)-prop-1-en-1-yl)-[1,1′-biphenyl]-2-yl)ethoxy)pyrimidin-4-yl)-2,8-diazaspiro[4.5]decane-3-carboxylic acid] | 0.05 to 0.3
17 | C/C=C/c1ccc([C@@H](Oc2cc(N3CCC4(CC3)CN[C@H](C(=O)O)C4)nc(N)n2)C(F)(F)F)c(-c2cccc(S(C)(=O)=O)c2)c1 [Example 53, (S)-8-(2-Amino-6-((R)-2,2,2-trifluoro-1-(3′-(methylsulfonyl)-5-((E)-prop-1-en-1-yl)-[1,1′-biphenyl]-2-yl)ethoxy)pyrimidin-4-yl)-2,8-diazaspiro[4.5]decane-3-carboxylic acid] | < 0.05

Now from value to compound:

Row | IC50 [µM] | Structure (SMILES)
18 | 0.3 to 3 | Nc1nc(NCc2ccccc2N2CCCCC2)cc(N2CCC3(CC2)CN[C@H](C(=O)O)C3)n1 [Example 41a, (S)-8-(2-Amino-6-((2-(piperidin-1-yl)benzyl)amino)pyrimidin-4-yl)-2,8-diazaspiro[4.5]decane-3-carboxylic acid]
19 | 0.3 to 3 | Nc1nc(NCc2c(Oc3ccccc3)cccc2N2CCCCC2)cc(N2CCC3(CC2)CN[C@H](C(=O)O)C3)n1 [Example 41b, (S)-8-(2-amino-6-((2-phenoxy-6-(piperidin-1-yl)benzyl)amino)pyrimidin-4-yl)-2,8-diazaspiro[4.5]decane-3-carboxylic acid]
20 | 3 to 10 | Nc1nc(NCC23CC4CC(CC(C4)C2)C3)cc(N2CCC3(CC2)CN[C@H](C(=O)O)C3)n1 [Example 41c, (3S)-8-(6-(((3S,5S)-adamantan-1-ylmethyl)amino)-2-aminopyrimidin-4-yl)-2,8-diazaspiro[4.5]decane-3-carboxylic acid]
21 | 3 to 10 | CC(Nc1cc(N2CCC3(CC2)CN[C@H](C(=O)O)C3)nc(N)n1)C12CC3CC(CC(C3)C1)C2 (stereo partly drawn) [Example 41d, (3S)-8-(6-((1-((1R,3S,5S)-adamantan-1-yl)ethyl)amino)-2-aminopyrimidin-4-yl)-2,8-diazaspiro[4.5]decane-3-carboxylic acid]
22 | < 0.05 | Nc1nc(O[C@H](c2ccccc2-c2cccc(Cl)c2)C(F)(F)F)cc(N2CCC3(CC2)CN[C@H](C(=O)O)C3)n1 [Example 42a, (S)-8-(2-amino-6-((R)-1-(3′-chloro-[1,1′-biphenyl]-2-yl)-2,2,2-trifluoroethoxy)pyrimidin-4-yl)-2,8-diazaspiro[4.5]decane-3-carboxylic acid]
23 | 0.05 to 0.3 | Nc1nc(O[C@H](c2ccccc2-c2cccc(F)c2)C(F)(F)F)cc(N2CCC3(CC2)CN[C@H](C(=O)O)C3)n1 [Example 42b, (S)-8-(2-amino-6-((R)-2,2,2-trifluoro-1-(3′-fluoro-[1,1′-biphenyl]-2-yl)ethoxy)pyrimidin-4-yl)-2,8-diazaspiro[4.5]decane-3-carboxylic acid]
24 | < 0.05 | Cc1ccc(-c2ccc([C@@H](Oc3cc(N4CCC5(CC4)CN[C@H](C(=O)O)C5)nc(N)n3)C(F)(F)F)c(-c3cccc(S(C)(=O)=O)c3)c2)cc1C [Example 52a, (S)-8-(2-Amino-6-((R)-1-(3,4-dimethyl-3″-(methylsulfonyl)-[1,1′:3′,1″-terphenyl]-4′-yl)-2,2,2-trifluoroethoxy)pyrimidin-4-yl)-2,8-diazaspiro[4.5]decane-3-carboxylic acid]
25 | < 0.05 | CS(=O)(=O)c1cccc(-c2cc(-c3ccc4ncccc4c3)ccc2[C@@H](Oc2cc(N3CCC4(CC3)CN[C@H](C(=O)O)C4)nc(N)n2)C(F)(F)F)c1 [Example 52b, (S)-8-(2-amino-6-((R)-2,2,2-trifluoro-1-(3′-(methylsulfonyl)-5-(quinolin-6-yl)-[1,1′-biphenyl]-2-yl)ethoxy)pyrimidin-4-yl)-2,8-diazaspiro[4.5]decane-3-carboxylic acid]

From US11759462B2, “Spirocyclic compounds as tryptophan hydroxylase inhibitors” (priority 2013, dated 2023)
